Data on 3 compounds can be found in patent publication EP4212151B1, “STILBENE, FLAVONOL OR CURCUMIN COMPOUNDS FOR USE IN THE TREATMENT OF AGE-RELATED MACULAR DEGENERATION (AMD; ARMD)” (Knepper, Paul A., priority 2022, dated 2023).

Where “and” joins values, the source holds several entries; their conditions need not be identical. Identical values can stand only once. Like-named read-outs stand apart in the source and are kept apart here.

As a reminder, the IC50 is the concentration that inhibits the measured activity by half.

Series [1] deals with superactivated platelets (SAPs). Put plainly: In-vitro flow cytometry platelet assay: superactivated platelets (SAP% of all platelets) after thrombin and convulxin; combination index by CompuSyn. The format is cell-based. To be noted: Homo sapiens; for IC50: individually (single agent), read-out: IC50 for the reduction of SAPs; for inhibition at 0.01 µM: single agent 0.01 µM; for inhibition at 0.01 µM / inhibition at 0.1 µM / inhibition at 1 µM / inhibition at 5 µM / inhibition at 10 µM: read-out: % change; for inhibition at 0.1 µM: single agent 0.1 µM; for inhibition at 1 µM: single agent 1 µM; for inhibition at 5 µM: single agent 5 µM; for inhibition at 10 µM: single agent 10 µM. An excerpt: Briefly, platelet-rich plasma (PRP) from patients with age-related macular degeneration (n = 9) are isolated from whole blood and challenged using dual agonists thrombin and convulxin (collagen substitute) to stimulate superactivated platelets (SAPs). SAPs are defined as positive for surface fibrinogen and negative for activated integrin αIIbβ3, whereas activated platelets are defined as negative for surface fibrinogen and positive for activated integrin αIIbβ3. Surface fibrinogen is detected by pre-treating platelets with biotinylated-fibrinogen (5 µg/mL) followed by staining with any common fluorophore conjugated to streptavidin. The streptavidin-fluorophore complex binds to the biotin-fibrinogen complex present on SAPs but not activated platelets due to the differing composition of charged surface proteins. Activated integrin αIIbβ3 - characteristic of activated platelets - is detected using the PAC-1 antibody conjugated to any compatible fluorophore. […] The effect of RQC on SAPs is determined by pre-treating diluted PRP samples with combinations of R, Q, and/or C for 5 minutes at 37°C followed by challenge with thrombin and convulxin for 5 minutes at 37°C. The samples are then stained with the fluorophore-conjugates and fixed in 3% formalin before analysis using a flow cytometer. SAP percentage is calculated as a percentage of all platelets. The effect size of RQC is determined by the change ion SAP percentage before and after treatment with RQC and is used as input to calculate drug synergy using the CompuSyn software developed by Chou, et al. Drug synergy, additivism, and antagonism are defined as a combination index (CI) score less than, equal to, or greater than 1, respectively. The level of drug synergy can be further stratified by quantile, tertile, or quartile in cases where numerous synergistic doses are compared.
The average combination index values of low, medium, and high doses of RQC for the inhibition of SAPs in AMD subjects was determined. The Combination Index (CI) theorem derived by Chou-Talalay [Chou, 2010] was calculated for each combination drug treatment of R, Q, and C. The CI is useful in quantifying levels of synergism and antagonism. The theorem is based on the median-effect equation to provide a common link between a single entity and multiple entities. A CI value < 1 indicates synergism, a CI equal to 1 indicates additivity, and a CI > 1 indicates antagonism. RQC was very effective in low, medium, and high doses.
R, Q, and C at three different dose levels each were tested in all possible combinations, resulting in 27 possible double and 27 possible triple combinations within each subject. The doses tested were R (1, 5, and 10 µM), Q (1, 5, and 10 µM), and C (0.01, 0.1, and 1 µM) and the effect was based on the inhibition of SAPs. To obtain the mean number of synergistic doses in each cohort, the average CI score for each dose combination was calculated within each cohort, producing a set of 27 double combination CI scores and 27 triple combination CI scores per cohort. Out of each set of 27 dose combinations, the number of CI scores under 0.8 (highly synergistic) was counted and reported here. For example, in control subjects 5 out of 27 possible double combinations were synergistic while 25 out of 27 possible triple combinations were synergistic based on the mean CI for each dose in the cohort.

In series [2] the test system is Dry AMD Subjects. Put plainly: Geographic atrophy area and growth rate in dry AMD subjects, Phase 1 study, 12 months. The format is in vivo, human. As to the method:
The effect of RQC and curcumin on geographic atrophy growth was evaluated in a Phase 1 study (TABLE 5, below) TABLE 5.
The expected untreated GA growth rate reported in the literature is 1.20 mm^2/year (or 0.18 mm/year adjusted for baseline lesion area). […] The decrease in GA growth rate was highly significant (p = 0.0004) compared with untreated samples [Yehoshua, et al., 2011] and remained highly significant when adjusted for differences in baseline lesion area (p = 0.0001). […]

Series [3] relates to Dry AMD Subjects. Put plainly: Drusen volume by OCT (manual segmentation, ImageJ) in dry AMD subjects, oral treatment for 18 months. The format is in vivo, human. Particulars: oral C 2660 mg/day or RQC 200/240/2660 mg/day; for Drusen Volume % Change: 18 months vs baseline; for Drusen Volume, 18 Months: after 18 months. The text has this: As stated hereinabove, dry AMD is a common disease characterized by retinal pathology. A typical finding of dry AMD is the presence of drusen and/or geographic atrophy. TABLE 1 below depicts drusen volume at baseline and after 18 months according to drusen size in all participants (C or RQC). […] To compare the changes in drusen volume found in this study in subjects taking oral curcumin against what would be expected over the natural course of the disease, optical coherence tomography (OCT) scans were evaluated. OCT is a new retinal imaging technology which is useful to analyze drusen volume and geographic atrophy. Each subject was scanned 6 months before treatment. This allowed for the examination of the natural history of a subject's drusen progression compared to progression with treatment. Standard deviation (SD) is expressed in mm^3. Statistical significance was determined by Wilcoxon Rank Sum test. Drusen volume was measured by manual segmentation using ImageJ software. Drusen size was determined by the widest width of the drusen and expressed in µm. […]

The conditions of series [4]: cited from earlier work; for maximum dose (highest dose evaluated in a repeated-dose clinical trial and found safe and tolerable): human, in vivo; for dose found well tolerated, low or no toxicity: clinical trials, doses as high as.
The conditions of series [5]: cited from earlier work; for Half-life: human, in vivo; for Bioavailability: oral.
[6] abbreviates: drusen ≥ 250 µm, listed as curcumin.

In the case of `COc1cc(/C=C/C(=O)CC(=O)/C=C/c2ccc(O)c(OC)c2)ccc1O` [Curcumin, (1E,6E)-1,7-bis(4-Hydroxy-3-methoxyphenyl)-1,6-heptadiene-3,5-dione], the IC50 in series [1] stood at 3.6 µM. In addition, the inhibition at 0.01 µM in series [1] (AMD (GA) subject) was 11.5%; in series [1] (control subject) it was 24.1%. The inhibition at 0.1 µM turned out to be 18.4% in series [1] (AMD (GA) subject) and 36.8% in series [1] (control subject). For the same compound, the inhibition at 1 µM in series [1] (AMD (GA) subject) is 37%; in series [1] (control subject) it was 33.7%. The “Growth Rate (mm^2/y)” value is 0.68 ± 0.79 mm^2/y in series [2] (GA, mean of arm, 12 months of treatment); 0.68 mm^2/y in series [2] (GA, mean of arm, 12 months of treatment, listed as curcumin); 1.462 mm^2/y and 1.258 mm^2/y and -0.037 mm^2/y and 0.037 mm^2/y in series [2] (geographic atrophy, individual eyes, 12 months, listed as C); 0.00 ± 0.05 mm^2/y in series [2] (nascent GA (nGA), mean of arm, 12 months of treatment); 0.005 mm^2/y in series [2] (nascent GA (nGA), mean of arm, 12 months of treatment, listed as curcumin). For the same compound, the “Baseline Area (mm^2)” value is 1.08 ± 1.10 mm^2 in series [2] (GA, mean of arm, baseline) and 0.14 ± 0.01 mm^2 in series [2] (nascent GA (nGA), mean of arm, baseline). In addition, the “Growth Rate (mm/y)” value in series [2] (GA, mean of arm, square root transformed (adjusted for baseline lesion area), 12 months) was 0.21 ± 0.25 mm/y; in series [2] (GA, mean of arm, square root transformed (adjusted for baseline lesion area), 12 months, listed as curcumin), 0.21 mm/y; in series [2] (geographic atrophy, individual eyes, square root transformed, 12 months, listed as C) it was 0.373 mm/y and 0.465 mm/y and -0.046 mm/y and 0.055 mm/y; in series [2] (nascent GA (nGA), mean of arm, square root transformed (adjusted), 12 months), 0.01 ± 0.07 mm/y; in series [2] (nascent GA (nGA), mean of arm, square root transformed (adjusted), 12 months, listed as curcumin) it was 0.01 mm/y. Besides, in series [2] (geographic atrophy, individual eyes (subject c0, eye c2, GA category c7), baseline, listed as C), the “Area (mm^2), Baseline” value is 1.794 mm^2 and 2.254 mm^2 and 0.147 mm^2 and 0.134 mm^2. Further, the “Area (mm^2), 12 mo” value in series [2] (geographic atrophy, individual eyes, after 12 months of treatment, listed as C) was 3.256 mm^2 and 3.512 mm^2 and 0.110 mm^2 and 0.171 mm^2. For the same compound, the “Drusen Volume % Change” value was -13.0% in series [3] (All drusen); 0.0% in series [3] (drusen 63-124 µm); -1.6% in series [3] (drusen 125-249 µm); -20.0% in series [3] (drusen ≥ 250 µm); -30.0% and -20.0% in series [3] (setting [6]). For the same compound, the “Drusen Volume, 18 Months” value is on record as 8.70 mm^3 in series [3] (All drusen); 8.7 (± 1.6) mm^3 in series [3] (All drusen, listed as curcumin); 0.08 mm^3 in series [3] (drusen 63-124 µm); 3.70 mm^3 in series [3] (drusen 125-249 µm); 6.00 mm^3 in series [3] (drusen ≥ 250 µm); 6.00 (± 1.30) mm^3 in series [3] (setting [6]). Further, the “Drusen Volume, Baseline” value was 10.1 mm^3 in series [3] (All drusen); 10.1 (± 1.60) mm^3 in series [3] (All drusen, listed as curcumin); 0.08 mm^3 in series [3] (drusen 63-124 µm); 3.80 mm^3 in series [3] (drusen 125-249 µm); 7.50 mm^3 in series [3] (drusen ≥ 250 µm); 0.75 (± 1.30) mm^3 in series [3] (setting [6]). Moreover, the “maximum dose (highest dose evaluated in a repeated-dose clinical trial and found safe and tolerable)” value (“maximum dose” for short) in series [4] is 12000 mg/day. In addition, the “dose safe and well tolerated” value in series [4] (review of clinical trials, doses up to, only minimal, mostly gastrointestinal side effects) was 8 to 12 g/day. Moreover, the “Half-life” value in series [5] is 5 to 6 h. In addition, the Bioavailability in series [5] is on record as 0.01-0.1%. For the same compound, the Cmax in series [5] (read-out: maximum plasma concentration, two capsules (1000 mg each)) was 0.6 to 1 µM.

In the case of `O=c1c(O)c(-c2ccc(O)c(O)c2)oc2cc(O)cc(O)c12` [Quercetin, 2-(3,4-dihydroxyphenyl)-3,5,7-trihydroxychromen-4-one;dihydrate], the IC50 in series [1] turned out to be 31 µM. Besides, in series [1] (AMD (GA) subject), the inhibition at 1 µM was determined as 6.7%, the inhibition at 5 µM turned out to be 43.9% and the inhibition at 10 µM was determined as 27.3%. Besides, in series [1] (control subject), the inhibition at 1 µM turned out to be 36.9%, the inhibition at 5 µM was 38.2% and the inhibition at 10 µM was found to be 24.7%. Further, in series [4], the “dose found well tolerated, low or no toxicity” value is reported as at most 5 g per day; the “maximum dose” value is reported as 5000 mg/day.

For `Oc1ccc(/C=C/c2cc(O)cc(O)c2)cc1` [Resveratrol, 5-[(1E)2-(4-hydroxyphenyl)ethenyl]-1,3-benzenediol], the IC50 in series [1] was determined as 36 µM. Moreover, in series [1] (AMD (GA) subject), the inhibition at 1 µM amounted to 8.6%, the inhibition at 5 µM stood at 17.1% and the inhibition at 10 µM is 18.6%. In series [1] (control subject), the inhibition at 1 µM worked out at 19.6%, the inhibition at 5 µM came out at 24.6% and the inhibition at 10 µM stood at 30.5%. Moreover, in series [4], the “dose found well tolerated, low or no toxicity” value is given as at most 5 g per day; the “maximum dose” value is 5000 mg/day. For the same compound, in series [5], the “Half-life” value was 2 to 5 h and the Bioavailability was 0.1-0.4%.
